{
  "source": "patent US20100317577A1",
  "about": "“Methods and Compositions for Inhibiting Cell Death or Enhacing Cell Proliferation” (Department of Health and Human Services, priority 2005, published 2010)",
  "key": {"[1]": {"test_system": "CD34^+ cells"}, "[2]": {"test_system": "caspase 3/7", "test": "Caspase 3/7 activity in HL-60 cells with staurosporine", "assay_type": "cell-based, human", "conditions": "HL-60, staurosporine"}, "[3]": {"test": "Protease sensitivity during expression in Pichia pastoris", "conditions": "high concentrations of protease inhibitors", "experimental": "In Pichia, GM-CSF-Bcl-XL was expressed intracellularly. The expression was monitored by Western blot.\nThe cells were harvested by centrifugation at 5,000 g, and, washed with binding buffer (5 mM imidazole, 20 mM Tris/Cl pH 7.9, 0.5M NaCl) containing 2 protease inhibitor tablets, COMPLETE PROTEASE INHIBITOR COCKTAIL EDTA-free (Roche Diagnostics, Indianapolis, Ind.),/50 ml of buffer. Cells were lysed by adding 100 g of acid washed glass beads (0.5 g of beads/ml of initial culture) with 1 cycle of 5 minutes, frequency 30 Hz, in a mixer mill (Retsch MM200, Haan, Del.). The cellular debris were eliminated by centrifugation at 18,000 g, 5 minutes at 4° C."}, "[4]": {"test_system": "caspase 3/7", "test": "Caspase 3/7 activity in monocytes treated with cytotoxic drugs", "assay_type": "cell-based, human"}, "[5]": {"test_system": "Peripheral blood mononuclear cell (PBMC)", "assay_type": "cell-based, human"}, "[6]": {"test_system": "HL-60 cells", "conditions": "for effect on staurosporine cytotoxicity (cell number): chimera at forty-eight hours"}},
  "data": [
    {"molecule": "Nc1ccn([C@@H]2O[C@H](CO)[C@@H](O)[C@@H]2O)c(=O)n1", "note": "[cytarabine, reference compound]", "values": [
      {"measurement": "effect on growth of CFU-GM and BFU-E colonies", "setting": "[1]", "value": "drastically impaired"}
    ]},
    {"molecule": "CN[C@@H]1C[C@H]2O[C@@](C)([C@@H]1OC)n1c3ccccc3c3c4c(c5c6ccccc6n2c5c31)C(=O)NC4", "note": "[staurosporine, reference compound]", "values": [
      {"measurement": "effect on caspase activity / apoptosis", "setting": "[2]", "value": "induced apoptosis at the highest levels"}
    ]},
    {"molecule": "GM-CSF-Bcl-XL: chimeric protein: human GM-CSF fused via glycine-serine-threonine linker to full length human Bcl-XL, N-terminal His tag, expressed in E. coli (SEQ ID NO:1)", "values": [
      {"measurement": "protection of colonies in the presence of cytarabine", "setting": "[1]; CD34+ cells, cytarabine", "value": "selectively protected the CFU-GM colonies relative to BFU-E"},
      {"measurement": "colonies under cytokine deprivation", "setting": "[1]; CD34+ cells, essential medium, no growth factor/cytokines", "value": "protected myeloid precursors from cytokine deprivation"},
      {"measurement": "effect on number of colonies", "setting": "[1]; CD34+ cells, supplemented medium (SCF, erythropoietin, cytokines)", "value": "two-fold"},
      {"measurement": "sensitivity to proteolysis", "setting": "[3]", "value": "very sensitive to proteolysis"},
      {"measurement": "inhibition of caspase 3/7 activity compared with GM-CSF at the same concentration", "setting": "[4]", "value": "more effective"},
      {"measurement": "reduction of caspase activity", "setting": "[4]; monocytes, 2.4 μM, cytotoxic drugs", "value": "more than 50%"},
      {"measurement": "protection of PBMC from kinase inhibitors / apoptosis", "setting": "[5]", "value": "protected PBMC from both kinase inhibitors in a dose dependent manner"},
      {"measurement": "increase in cell viability in the presence of AG409", "setting": "[5]; 0.24 µM", "value": 30, "unit": "%"},
      {"measurement": "increase in cell viability in the presence of staurosporine", "setting": "[5]; 0.24 µM", "value": 50, "unit": "%"},
      {"measurement": "time of maximum effect on proliferation", "setting": "[6]; HL-60", "value": 48, "unit": "h"},
      {"measurement": "proliferation activity higher than in cells treated with the same molar amount of GM-CSF", "setting": "[6]; HL-60, 48 hours", "value": 30, "unit": "%"},
      {"measurement": "duration of protection from staurosporine", "setting": "[6]; HL-60, staurosporine", "value": "at least seventy-two hours"},
      {"measurement": "effect on staurosporine cytotoxicity (cell number)", "setting": "[6]; HL-60, staurosporine", "value": "approximately the same number of cells as control cultures without staurosporine"},
      {"measurement": "reduction in cell death", "setting": "[6]; HL-60, with staurosporine, seventy-two hours, versus control", "value": 30, "unit": "%"},
      {"measurement": "cells that had died", "setting": "[6]; HL-60, with staurosporine, seventy-two hours, 50% of control cells had died", "value": 20, "unit": "%"}
    ]},
    {"molecule": "GM-CSF: human granulocyte-macrophage colony-stimulating factor, a cytokine", "values": [
      {"measurement": "effect on caspase activity / apoptosis", "setting": "[2]", "value": "reduced"},
      {"measurement": "prosurvival activity in the presence of AG 490", "setting": "[5]", "value": "completely inhibited"},
      {"measurement": "prosurvival activity in the presence of staurosporine", "setting": "[5]", "value": "largely inhibited"},
      {"measurement": "effect on staurosporine cytotoxicity (cell number)", "setting": "[6]; HL-60, staurosporine", "value": "not able to block the cytotoxic effect of staurosporine"}
    ]}
  ]
}
